In the NIST ThermoML archive (doi:10.1021/je700215z):
± gives the expanded uncertainty stated by the source.

Experiments:
[1] = xn = mol fraction of the nth substance listed

CCO [ethanol]
Conditions | surface tension liquid-gas [mN/m]
283.15 K | 23.12 ± 0.28
288.15 K | 22.75 ± 0.28
293.15 K | 22.28 ± 0.28
298.15 K | 21.86 ± 0.27
303.15 K | 21.49 ± 0.27
308.15 K | 21.15 ± 0.27
313.15 K | 20.66 ± 0.27

CCCCCC [hexane]
Conditions | surface tension liquid-gas [mN/m]
283.15 K | 19.63 ± 0.28
288.15 K | 19.04 ± 0.28
293.15 K | 18.52 ± 0.27
298.15 K | 18.06 ± 0.27
303.15 K | 17.53 ± 0.26
308.15 K | 16.74 ± 0.26
313.15 K | 16.47 ± 0.26

CCC(C)O (centres undefined) [butan-2-ol] + CCCCCC
surface tension liquid-gas [mN/m], [1]
Conditions | 283.15 K | 288.15 K | 293.15 K | 298.15 K | 303.15 K | 308.15 K | 313.15 K
x1 = 0.0493 | 19.75 ± 0.28 | 19.16 ± 0.28 | 18.62 ± 0.27 | 18.11 ± 0.27 | 17.52 ± 0.26 | 16.69 ± 0.26 | 16.33 ± 0.26
x1 = 0.1057 | 19.84 ± 0.28 | 19.24 ± 0.28 | 18.7 ± 0.3 | 18.14 ± 0.27 | 17.53 ± 0.26 | 16.66 ± 0.26 | 16.26 ± 0.26
x1 = 0.2083 | 20 ± 0.28 | 19.36 ± 0.28 | 18.8 ± 0.3 | 18.21 ± 0.27 | 17.62 ± 0.27 | 16.81 ± 0.26 | 16.41 ± 0.26
x1 = 0.3004 | 20.18 ± 0.28 | 19.52 ± 0.28 | 18.95 ± 0.27 | 18.37 ± 0.27 | 17.82 ± 0.27 | 17.08 ± 0.26 | 16.7 ± 0.26
x1 = 0.4002 | 20.43 ± 0.28 | 19.77 ± 0.28 | 19.21 ± 0.28 | 18.67 ± 0.27 | 18.16 ± 0.27 | 17.5 ± 0.26 | 17.13 ± 0.26
x1 = 0.4962 | 20.72 ± 0.29 | 20.13 ± 0.28 | 19.6 ± 0.28 | 19.09 ± 0.28 | 18.6 ± 0.3 | 18.01 ± 0.27 | 17.62 ± 0.27
x1 = 0.5948 | 21.1 ± 0.29 | 20.57 ± 0.29 | 20.13 ± 0.28 | 19.61 ± 0.28 | 19.18 ± 0.28 | 18.6 ± 0.27 | 18.22 ± 0.27
x1 = 0.6968 | 21.64 ± 0.29 | 21.2 ± 0.29 | 20.76 ± 0.29 | 20.26 ± 0.28 | 19.84 ± 0.28 | 19.33 ± 0.28 | 18.92 ± 0.27
x1 = 0.8018 | 22.35 ± 0.3 | 21.9 ± 0.29 | 21.52 ± 0.29 | 21.04 ± 0.29 | 20.67 ± 0.29 | 20.18 ± 0.28 | 19.74 ± 0.28
x1 = 0.8964 | 23.18 ± 0.3 | 22.74 ± 0.3 | 22.34 ± 0.3 | 21.88 ± 0.29 | 21.52 ± 0.29 | 21.12 ± 0.29 | 20.73 ± 0.29
x1 = 0.9492 | 23.73 ± 0.31 | 23.31 ± 0.3 | 22.9 ± 0.3 | 22.43 ± 0.3 | 22.11 ± 0.3 | 21.73 ± 0.29 | 21.33 ± 0.29

CCC(C)O (centres undefined) [butan-2-ol]
Conditions | surface tension liquid-gas [mN/m]
283.15 K | 24.37 ± 0.31
288.15 K | 23.95 ± 0.31
293.15 K | 23.56 ± 0.31
298.15 K | 23.08 ± 0.3
303.15 K | 22.75 ± 0.3
308.15 K | 22.39 ± 0.3
313.15 K | 21.97 ± 0.3

CCCCCC [hexane] + CCCCO
surface tension liquid-gas [mN/m], [1]
Conditions | 283.15 K | 288.15 K | 293.15 K | 298.15 K | 303.15 K | 308.15 K | 313.15 K
x2 = 0.0519 | 19.78 ± 0.28 | 19.15 ± 0.27 | 18.6 ± 0.3 | 18.11 ± 0.27 | 17.55 ± 0.26 | 16.75 ± 0.26 | 16.4 ± 0.26
x2 = 0.0875 | 19.87 ± 0.28 | 19.26 ± 0.27 | 18.7 ± 0.3 | 18.2 ± 0.3 | 17.61 ± 0.26 | 16.8 ± 0.26 | 16.43 ± 0.26
x2 = 0.1959 | 20.17 ± 0.28 | 19.58 ± 0.27 | 19.03 ± 0.27 | 18.52 ± 0.27 | 17.92 ± 0.26 | 17.13 ± 0.26 | 16.74 ± 0.26
x2 = 0.2999 | 20.41 ± 0.28 | 19.88 ± 0.27 | 19.35 ± 0.27 | 18.84 ± 0.27 | 18.28 ± 0.26 | 17.52 ± 0.26 | 17.12 ± 0.26
x2 = 0.399 | 20.69 ± 0.28 | 20.14 ± 0.27 | 19.65 ± 0.27 | 19.1 ± 0.27 | 18.62 ± 0.26 | 17.91 ± 0.26 | 17.48 ± 0.26
x2 = 0.4914 | 20.93 ± 0.28 | 20.4 ± 0.27 | 19.96 ± 0.27 | 19.43 ± 0.27 | 18.92 ± 0.26 | 18.29 ± 0.26 | 17.83 ± 0.26
x2 = 0.5974 | 21.44 ± 0.28 | 20.9 ± 0.27 | 20.44 ± 0.27 | 19.91 ± 0.27 | 19.43 ± 0.27 | 18.82 ± 0.26 | 18.39 ± 0.26
x2 = 0.7044 | 22.14 ± 0.28 | 21.63 ± 0.28 | 21.18 ± 0.27 | 20.6 ± 0.3 | 20.17 ± 0.27 | 19.59 ± 0.26 | 19.12 ± 0.26
x2 = 0.8027 | 23.09 ± 0.28 | 22.54 ± 0.28 | 22.13 ± 0.28 | 21.54 ± 0.27 | 21.13 ± 0.27 | 20.6 ± 0.27 | 20.15 ± 0.27
x2 = 0.9088 | 24.37 ± 0.29 | 23.85 ± 0.29 | 23.44 ± 0.28 | 22.87 ± 0.28 | 22.51 ± 0.28 | 22.06 ± 0.28 | 21.6 ± 0.27
x2 = 0.953 | 24.93 ± 0.29 | 24.47 ± 0.29 | 24.07 ± 0.29 | 23.53 ± 0.28 | 23.18 ± 0.28 | 22.76 ± 0.28 | 22.37 ± 0.28

CCCCO [butan-1-ol]
Conditions | surface tension liquid-gas [mN/m]
283.15 K | 25.55 ± 0.29
288.15 K | 25.12 ± 0.29
293.15 K | 24.78 ± 0.29
298.15 K | 24.25 ± 0.29
303.15 K | 23.95 ± 0.29
308.15 K | 23.55 ± 0.28
313.15 K | 23.15 ± 0.28

CCCCCC [hexane] + CCO
surface tension liquid-gas [mN/m], [1]
Conditions | 283.15 K | 288.15 K | 293.15 K | 298.15 K | 303.15 K | 308.15 K | 313.15 K
x2 = 0.0855 | 19.7 ± 0.28 | 19.11 ± 0.27 | 18.57 ± 0.27 | 18.03 ± 0.27 | 17.49 ± 0.26 | 16.67 ± 0.26 | 16.3 ± 0.25
x2 = 0.1006 | 19.74 ± 0.28 | 19.11 ± 0.27 | 18.56 ± 0.27 | 18.03 ± 0.27 | 17.48 ± 0.26 | 16.66 ± 0.26 | 16.29 ± 0.25
x2 = 0.2107 | 19.73 ± 0.27 | 19.1 ± 0.3 | 18.55 ± 0.27 | 18.01 ± 0.26 | 17.42 ± 0.26 | 16.64 ± 0.25 | 16.2 ± 0.3
x2 = 0.2928 | 19.77 ± 0.27 | 19.18 ± 0.27 | 18.57 ± 0.27 | 18.03 ± 0.26 | 17.46 ± 0.26 | 16.68 ± 0.25 | 16.24 ± 0.25
x2 = 0.4128 | 19.9 ± 0.27 | 19.29 ± 0.27 | 18.71 ± 0.26 | 18.15 ± 0.26 | 17.57 ± 0.26 | 16.85 ± 0.25 | 16.38 ± 0.25
x2 = 0.5071 | 20.08 ± 0.27 | 19.46 ± 0.27 | 18.84 ± 0.26 | 18.29 ± 0.26 | 17.72 ± 0.26 | 17.04 ± 0.25 | 16.56 ± 0.25
x2 = 0.5909 | 20.26 ± 0.27 | 19.67 ± 0.27 | 19.02 ± 0.26 | 18.45 ± 0.26 | 17.93 ± 0.26 | 17.26 ± 0.25 | 16.74 ± 0.25
x2 = 0.7036 | 20.61 ± 0.27 | 20.02 ± 0.27 | 19.36 ± 0.26 | 18.8 ± 0.26 | 18.26 ± 0.26 | 17.7 ± 0.25 | 17.21 ± 0.25
x2 = 0.8032 | 21.05 ± 0.27 | 20.46 ± 0.27 | 19.88 ± 0.27 | 19.32 ± 0.26 | 18.82 ± 0.26 | 18.31 ± 0.26 | 17.85 ± 0.25
x2 = 0.9021 | 21.78 ± 0.27 | 21.28 ± 0.27 | 20.73 ± 0.27 | 20.22 ± 0.27 | 19.81 ± 0.26 | 19.38 ± 0.26 | 18.91 ± 0.26
x2 = 0.932 | 22.11 ± 0.28 | 21.64 ± 0.27 | 21.11 ± 0.27 | 20.64 ± 0.27 | 20.22 ± 0.27 | 19.82 ± 0.26 | 19.36 ± 0.26
